In patent publication US11312939B2, “Constructs for chimeric antigen receptors” (Carisma Therapeutics Inc., priority 2020, dated 2022):

B1: CD40L: Recombinant CD40 ligand (Peprotech), CD40 agonist (protein, UniProt P29965 113-261, looked up)
CD40 ligand, soluble form: MQKGDQNPQIAAHVISEASSKTTSVLQWAEKGYYTMSNNLVTLENGKQLTVKRQGLYYIYAQVTFCSNREASSQAPFIASLCLKSPGRFERILLRAANTHSSAKPCGQQSIHLGGVFELQPGASVFVNVTDPSQVSHGTGFTSFGLLKL

Key:
[1] = system: Human macrophages electroporated with HER2 CAR mRNA; assay: Cytokine treatment of HER2 CAR mRNA macrophages: viability, CAR expression, M1/M2 markers by flow cytometry; type: cell-based; conditions: days 2 and 7
Experimental: Human macrophages were electroporated with HER2 CAR mRNA comprising m6AGCap1 and PsU modifications. Cells were cultured with cytokines that induce an M1 phenotype such as IFN-alpha, IFN-beta, IFN-gamma, IFN-gamma plus lipopolysaccharide (LPS), TNF-alpha, IL-6 or a STING ligand (STING-L) for up to 48 hours and then cytokines were washed off and fresh media was added. CAR expression and M1 marker expression were measured on days 2 and 7 after transfection. Fluorescent labeled HER2+ breast cancer cells (CRL2351) were co-cultured with HER2 CAR macrophages two days after the macrophages were transfected. Cancer cell growth was monitored via its fluorescence on an Incucyte® live imaging microscope every four hours. The Effector (CAR macrophage) to Target (cancer cell) ratio was 5:1.
Five different mRNA modifications were also tested to determine if interferon treatment differentially affected macrophages transfected with mRNA comprising different modifications. Human macrophages were electroporated with HER2 CAR mRNA comprising different mRNA modifications. CAR expression and M1 markers were detected by Flow Cytometry (Attune) on day four after electroporation. Day 4 CAR macrophage cells were then co-cultured with a Nuc-Light labeled, HER2+ breast cancer cell line (CRL2351) at an Effector (CAR macrophage) to Target (cancer cell) ratio of 5:1. Cancer cell growth was monitored via its fluorescence on an Incucyte® live imaging microscope every four hours.
Human macrophages were electroporated with 300 nM CAR mRNA comprising m6AGCap1 and PsU modifications. Cells were cultured with 20 ng/mL IFNs for 24 hours and then the cells were washed to remove cytokines. CAR expression was detected by Flow Cytometry (Attune) on day 2 after transfection. Cells were then co-cultured with a Nuc-Light labeled, HER2+ breast cancer cell line (CRL2351) at the Effector to Target ratio of 3:1. Cancer cell growth was monitored via its fluorescence on an Incucyte® live imaging microscope. CAR expression and M1 markers in macrophages were detected by Flow Cytometry (Attune) on day 7 after transfection.

[2] = system: HER2 CAR macrophages co-cultured with HER2+ breast cancer cells (CRL2351); assay: Cytokine secretion of interferon treated HER2 CAR macrophages in co-culture (MSD); type: cell-based, human; conditions: E:T 3:1, supernatant at 48 hours
Experimental: Human macrophages were electroporated with 150 nM HER2 CAR mRNA comprising m6AGCap1 and PsU modifications. HER2+ breast cancer cells (CRL2351) were co-cultured with CAR macrophages after the macrophages were transfected with the CAR mRNA at an Effector (CAR macrophage) to Target (cancer cell) ratio of 3:1. Supernatant was collected 48 hours after the cancer cells and macrophages were co-cultured and cytokine levels were measured using a Meso Scale Discovery (MSD) instrument.

[3] = system: Human macrophages transfected with mCherry mRNA; assay: mCherry mRNA expression in transfected macrophages (Incucyte); type: cell-based; conditions: cultured one day with different doses
Experimental: Human macrophages were transfected with mCherry mRNA comprising m6AGCap1 and PsU or N1 mPsU modifications and were then cultured for one day with different doses of IFN-γ. mCherry expression was monitored on an Incucyte® live imaging microscope.
In order to determine whether an RNaseL inhibitor could rescue IFN-γ-induced instability of transfected mRNA, human macrophages were treated with 1 μM sunitinib (an RNaseL inhibitor) two hours prior to the transfection of mCherry mRNA comprising m6AGCap1 and PsU modifications. Transfected cells were then cultured for one day with different dosages of IFN-γ. mCherry expression was monitored on an Incucyte® live imaging microscope.
The effect of another RNaseL inhibitor (RLI or ABCE1) was also tested to further validate the concept. Human macrophages were co-transfected with mRNA encoding mCherry comprising m6AGCap 1 and PsU modifications and with mRNA encoding ABCE1.

[4] = system: CRL-2351 cells expressing nuclear GFP; assay: Priming of CAR macrophages with plate-coated agonists, tumor cell killing; type: cell-based; conditions: plate-coated protein, 3 h priming
Experimental: (§1) To generate Her2-Zeta CAR expressing macrophages, primary human macrophages were suspended in EP buffer (MaxCyte) containing 300 nM mRNA (TriLink) at a concentration of 90×10^6 cells/mL. 100 μL of cell mixture was added to an electroporation cassette (OC100×2; MaxCyte) and electroporated using the Experimental T cell 1 setting. Cells were removed from the cassette, plated in 3 mL of TexMACS media (Miltenyi Biotech) containing 20% FBS (Gibco) on UpCell plates (Thermo Scientific), and incubated overnight at 37 C and 5% CO2.
(§2) Recombinant CD40 ligand (Peprotech), 4-1BB ligand (Enzo Life Sciences), and 4-1BB receptor (Peprotech) were resuspended in molecular grade water to a stock concentration of 100 μg/mL. Stock solution was then used to create working solutions in PBS ranging from 2-0.002 μg/mL. 100 uL of working solution was added to wells in a 96-well plate and left at room temperature for 4 h.
Plates were removed from the incubator and left at room temperature for 30 min. Cells were detached from plate, counted using the NC-200 automated cell counter (Chemomtech), and re-suspended in TexMACS media with 10% FBS. […] Cell lysis was detected using Incucyte® analysis (Essen Bioscience). Tumor cell death was calculated by integrated GFP intensity per well relative to time 0.

[5] = system: Her2-Zeta CAR expressing macrophages; assay: Priming of CAR macrophages with plate-coated agonists, M1 and M2 surface markers; type: cell-based, human; conditions: plate-coated protein, 3 days
Experimental: as §1, §2
For detection of cell surface proteins, macrophages were plated onto wells coated with agonist molecules in a final volume of 200 uL TexMACS media+10% FBS+10 ng/mL GM-CSF and incubated for 3 days at 37 C and 5% CO2. Cells were incubated in 300 μL Accutase (Sigma) for 30 min and transferred to 96-well round bottom plate for staining. Cells were incubated in FACS buffer containing 20 μg/mL Her2-His for 20 min at RT, followed by incubation in Human TruStain FcX for 10 min at RT. […]

| Molecule | M1 phenotype based on CD86 expression [1] | M2 markers based on CD163 expression [1] | secretion of IL-6, IL-8 and TNFα from macrophages [2] | mCherry mRNA expression [3] | tumor killing ability of macrophages and CAR macrophages [4] | M1 phenotype of mRNA CAR macrophages (M1 and M2 markers) [5] |
| --- | --- | --- | --- | --- | --- | --- |
| IFN-α | induction of an M1 phenotype | reduction of M2 markers | increased secretion of the cytokines IL-6, IL-8 and TNFα |  |  |  |
| IFN-γ: interferon cytokine that induces an M1 phenotype | induction of an M1 phenotype | reduction of M2 markers | increased secretion of the cytokines IL-6, IL-8 and TNFα | reduced mCherry mRNA expression |  |  |
| B1 |  |  |  |  | significantly improved the tumor killing ability | induced an M1 phenotype |
